How the values were obtained:
RAW264.7 cells = assay: CCK-8 cell viability of RAW264.7 macrophages at different concentrations of (+)3C-20 (LPS experiment); assay type: cell-based, mice; details: RAW264.7 cell viability
Method: RAW264.7 cells were inoculated into a 96-well plate at a density of 1×10^5 per well. When the cell density was 70%-80%, the RAW264.7 cells were pretreated with (+)3C-20 ([…]). After 3 h, lipopolysaccharide (LPS, 100 ng/mL) was added into all wells for action for 2 h except for a control group. The expression level of an inflammatory factor TNF-α in a cell supernatant was detected according to an operation instruction of a commercial ELISA kit, and the cell viability at different administration concentrations of (+)3C-20 was determined according to an operation instruction of a CCK-8 kit.

[1] = tested on: mice with acute lung injury caused by intratracheal instillation of lipopolysaccharide; assay: Intratracheal LPS acute lung injury: wet/dry ratio, BALF TNF-α, total protein, myeloid cells; assay type: in vivo, ICR mice
Method: Grouping and administration of animals: 50 male ICR mice were randomly divided into 3 groups according to the body weight, including a control group, a model group and a 50 mg/kg (+)3C-20 group. Drug preparation, administration and a modeling method were the same as those in Example 7. After continuous preadministration for 3 days, intratracheal instillation of LPS was performed for modeling 2 h after the last administration. 6 h after the modeling, a part of the mice were directly sacrificed, the whole lungs were taken out and weighed to obtain wet weight, then the whole lungs were dried at 60° C. for 24 h and weighed to obtain dry weight, and the wet-dry weight ratio of each group was calculated by statistics. 6 h after the modeling, the remaining mice were subjected to bronchoalveolar lavage, and then bronchoalveolar lavage fluid (BALF) was collected. A lavage process was as follows: After being sacrificed, the mice were placed faceup to fix the four limbs, the skin of the neck was cut, the trachea was separated and cut at an appropriate position to obtain a small incision, a 16G needle with a flat tip was inserted into the trachea at a depth of 1 cm, the trachea and the needle stem were tied tightly to obtain an indwelling needle, 400 μL of precooled PBS was sucked with a 1 mL syringe and slowly pushed into the trachea, suction was performed for two times, the operations above were repeated, and recovered BALF was combined with a recovery efficiency of 70%-80%. The collected BALF was subjected to centrifugation at 500×g at 4° C. for 5 min, a supernatant was collected, the content level of total protein in the supernatant was determined by a BCA kit, and the expression level of an inflammatory factor TNF-α in the BALF supernatant was detected according to an operation instruction of a commercial ELISA kit.
A bottom precipitate obtained after the centrifugation of the BALF was resuspended with 100 μL of an ACK buffer (Thermo A10492 stomatocytosis agent), evenly blown and subjected to standing for 1 min. Stomatocytosis was stopped with 1 mL of an FACS buffer (PBS containing 1% of FBS), centrifugation was performed at 500×g at 4° C. for 5 min, a supernatant was discarded, 100 μL of an FACS buffer was added, 1 μL of a CD16/CD32 Fc Block antibody (1:100) was added, and incubation was performed in the dark at 4° C. for 30 min. 1 mL of an FACS buffer was added, centrifugation was performed at 500×g at 4° C. for 5 min, a supernatant was discarded, and 100 μL of an FACS buffer was added for resuspension. Various fluorescent dyes (including mCD45-PerCP-Cy5.5, mCD11b-FITC, mF4/80-APC, mLy6C-PE, mLy6G-BV421 and FVS-780) were added at a ratio of 1:300, a single dye tube of each of the fluorescent dyes was prepared according to the above ratio, and incubation was performed in the dark at 4° C. for 30 min. 1 mL of an FACS buffer was added for resuspension, centrifugation was performed at 500×g at 4° C. for 5 min, and a supernatant was discarded. Washing was repeated for one time, centrifugation was performed to remove a supernatant, 500 μL of 1% paraformaldehyde was added for fixing in the dark for 30 min, centrifugation was performed at 500×g at 4° C. for 5 min, and a supernatant was discarded. 200 μL of an FACS buffer was added for resuspension, and a resulting suspension was stored in the dark at 4° C. Before loading on a machine, the stained cell suspension was diluted with an FACS buffer, transferred to a flow tube and detected according to an operation procedure of a CytoFlex flow cytometer. A flow gate strategy was as follows: Gain was first regulated according to each single dye tube, and compensation was properly regulated, where CD45^+, CD11b^+ and F4/80^+ were macrophages, CD45^+, CD11b^+ and Ly6G^+ were neutrophils, and CD45^+, CD11b^+ and Ly6C^+ were monocytes.

[2] = 50 mg/kg i.p. 3 days, 6 h after intratracheal LPS, model group = 100

SMILES: O=C(CCc1ccc(C(F)(F)F)cc1)O[C@@H]1C(=O)NCCc2c([nH]c3ccccc23)[C@H]1c1ccc(C(F)(F)F)cc1 [(+)-3C-20]
- Percentage of CCK-8 in a model group (%) (RAW264.7 cells; 0.1 μM): 108.6 ± 1.49%
- Percentage of CCK-8 in a model group (%) (RAW264.7 cells; 0.5 μM): 106.11 ± 2.44%
- Percentage of CCK-8 in a model group (%) (RAW264.7 cells; 1 μM): 106.01 ± 1.75%
- Percentage of CCK-8 in a model group (%) (RAW264.7 cells; 2 μM): 106.41 ± 3.04%
- Percentage of CCK-8 in a model group (%) (RAW264.7 cells; 5 μM): 105.55 ± 1.06%
- Percentage of CCK-8 in a model group (%) (RAW264.7 cells; 10 μM): 96.64 ± 1.45%
- Percentage of CCK-8 in a model group (%) (RAW264.7 cells; 20 μM): 95.83 ± 2.29%
- Level of TNF-α in BALF [1, 2]: 43.31
- Level of total protein in BALF [1, 2]: 73.44
- Wet/Dry ratio ([1]; 50 mg/kg i.p. 3 days, lung, 6 h after intratracheal LPS): 4.28
- Macrophage (%) ([1]; 50 mg/kg i.p., BALF flow cytometry CD45+ CD11b+ F4/80+): 0.82%
- Monocyte (%) ([1]; 50 mg/kg i.p., BALF flow cytometry CD45+ CD11b+ Ly6C+): 4.13%
- Neutrophil (%) ([1]; 50 mg/kg i.p., BALF flow cytometry CD45+ CD11b+ Ly6G+): 10.47%

Source: patent US20240300959A1, “BALASUBRAMIDE DERIVATIVE AND USE THEREOF IN PREPARATION OF MEDICINE FOR TREATING ACUTE LUNG INJURY” (Guangdong Pharmaceutical University, priority 2023, published 2024)
